Read-outs that look alike come from different tables or passages of the source.
Biological target: T1, LRRK2(G2019S mutation, GST-LRRK2(amino acids 970-2527)) (Homo sapiens, UniProt Q5S007, G2019S)
T1 construct: GST-LRRK2(amino acids 970-2527); GST (N); purchased Life Technologies Corporation
Assay: LRRK2 Km ATP LanthaScreen Assay
Format: biochemical
Conditions: read-out: LRRK2 IC50
Experimental: Unless otherwise noted, all LRRK2 IC50 data presented in tables refers to the LRRK2 Km ATP LanthaScreen™ Assay that is described in the Biological Assay section.
The data presented for the 5 mM and Km ATP LanthaScreen™ Assay represents mean IC50 values based on several test results and may have reasonable. deviations depending on the specific conditions and reagents used. Reagents for the LRRK2 5 mM and Km ATP LanthaScreen™ Assay were purchased from Life Technologies Corporation.
Results are analysed using Assay Data Analyzer.

[1] = Km ATP LanthaScreen, mean IC50 of several tests
[2] = Km ATP LanthaScreen Assay, LRRK2 G2019S, mean IC50 values

T1 sequence (Q5S007 970-2527 G2019S): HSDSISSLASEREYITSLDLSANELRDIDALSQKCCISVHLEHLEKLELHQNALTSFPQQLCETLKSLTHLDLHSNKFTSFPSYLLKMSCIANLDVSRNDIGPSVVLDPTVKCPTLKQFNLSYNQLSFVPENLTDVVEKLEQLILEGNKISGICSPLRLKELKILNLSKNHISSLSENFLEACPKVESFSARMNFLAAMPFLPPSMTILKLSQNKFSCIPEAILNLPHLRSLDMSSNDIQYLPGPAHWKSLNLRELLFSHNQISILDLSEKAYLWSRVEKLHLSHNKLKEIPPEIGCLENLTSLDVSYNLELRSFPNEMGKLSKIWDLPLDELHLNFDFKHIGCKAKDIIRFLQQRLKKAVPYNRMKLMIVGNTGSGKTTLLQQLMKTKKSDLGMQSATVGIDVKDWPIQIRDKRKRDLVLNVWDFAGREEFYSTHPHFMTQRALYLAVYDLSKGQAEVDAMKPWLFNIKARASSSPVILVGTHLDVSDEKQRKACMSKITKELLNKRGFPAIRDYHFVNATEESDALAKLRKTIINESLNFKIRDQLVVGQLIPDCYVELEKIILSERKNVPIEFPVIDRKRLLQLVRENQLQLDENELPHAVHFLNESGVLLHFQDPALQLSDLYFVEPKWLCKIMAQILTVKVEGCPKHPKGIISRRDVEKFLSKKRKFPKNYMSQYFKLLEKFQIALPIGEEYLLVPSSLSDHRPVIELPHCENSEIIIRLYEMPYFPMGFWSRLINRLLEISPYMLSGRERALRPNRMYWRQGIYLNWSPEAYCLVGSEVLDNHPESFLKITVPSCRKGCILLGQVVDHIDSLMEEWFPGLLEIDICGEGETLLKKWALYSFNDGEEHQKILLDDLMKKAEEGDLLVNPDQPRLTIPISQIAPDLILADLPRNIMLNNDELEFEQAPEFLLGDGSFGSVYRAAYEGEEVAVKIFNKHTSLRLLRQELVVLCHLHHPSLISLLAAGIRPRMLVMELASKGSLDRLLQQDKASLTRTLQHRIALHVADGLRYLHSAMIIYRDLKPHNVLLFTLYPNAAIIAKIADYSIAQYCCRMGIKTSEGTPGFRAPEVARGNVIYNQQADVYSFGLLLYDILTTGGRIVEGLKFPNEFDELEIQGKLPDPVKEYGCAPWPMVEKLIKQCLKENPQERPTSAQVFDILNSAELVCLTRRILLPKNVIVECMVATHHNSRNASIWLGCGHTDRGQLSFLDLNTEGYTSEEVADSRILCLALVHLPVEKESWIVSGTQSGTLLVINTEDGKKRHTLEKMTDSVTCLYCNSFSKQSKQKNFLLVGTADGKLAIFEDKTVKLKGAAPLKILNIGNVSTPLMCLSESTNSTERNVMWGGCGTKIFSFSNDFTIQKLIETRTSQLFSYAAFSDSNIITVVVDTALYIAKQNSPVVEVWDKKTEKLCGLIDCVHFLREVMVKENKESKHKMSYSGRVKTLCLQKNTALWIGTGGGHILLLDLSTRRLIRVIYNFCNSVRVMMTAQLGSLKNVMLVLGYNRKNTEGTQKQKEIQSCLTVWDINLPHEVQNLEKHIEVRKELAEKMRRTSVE

Structure (SMILES) | IC50 [1] [µM] | IC50 [2] [µM]
COc1ccc(-c2ccc3[nH]nc(-c4ccnc(N5CCOCC5)c4)c3c2)cn1 [Ex 329] | 0.014 | 
COc1ncnc(C)c1-c1ccc2[nH]nc(-c3ccnc(N4CCOCC4)c3)c2c1 [Ex 331] | 0.059 | 
Cn1cnnc1-c1ccc2[nH]nc(-c3ccnc(N4CCOCC4)c3)c2c1 [Ex 341] | 0.0014 | 
Cc1nnc(-c2ccc3[nH]nc(-c4ccnc(N5CCOCC5)c4)c3c2)o1 [Ex 342] | 0.00061 | 
Cn1cc(-c2cc3c(-c4ccnc(N5CCOCC5)c4)n[nH]c3cc2F)cn1 [Ex 352] | 0.012 | 
Cn1cc(-c2cc3c(-c4ccnc(N5CC(F)C5)c4)n[nH]c3cc2F)cn1 [Ex 353] | 0.0046 | 
CCOc1nccnc1-c1ccc2[nH]nc(-c3ccnc(N4CCOCC4)c3)c2c1 [Ex 390] | 0.0016 | 
c1ccc2c(-c3ccnc(N4CCOCC4)c3)n[nH]c2c1 [Example 1] | 0.016 | 
c1ccc2c(-c3ccnc(N4CCCCCC4)c3)n[nH]c2c1 [Example 2] |  | 0.076
COCCN(C)c1cc(-c2n[nH]c3ccccc23)ccn1 [Example 3] |  | 0.048
COCCNc1cc(-c2n[nH]c3ccccc23)ccn1 [Example 4] |  | 0.046
c1ccc2c(-c3ccnc(N4CCCC4)c3)n[nH]c2c1 [Example 5] |  | 0.017
c1ccc2c(-c3ccnc(N4CCCCC4)c3)n[nH]c2c1 [Example 6] |  | 0.016
c1ccc2c(c1)CN(c1cc(-c3n[nH]c4ccccc34)ccn1)C2 [Example 7] |  | 0.087
CN1CCN(c2cc(-c3n[nH]c4ccccc34)ccn2)CC1 [Example 8] |  | 0.042
OCCNc1cc(-c2n[nH]c3ccccc23)ccn1 [Example 9] |  | 0.054
OC1CCN(c2cc(-c3n[nH]c4ccccc34)ccn2)CC1 [Example 10] |  | 0.024
c1ccc(N2CCN(c3cc(-c4n[nH]c5ccccc45)ccn3)CC2)cc1 [Example 11] |  | 0.049
c1ccc2c(-c3ccnc(N4CCSCC4)c3)n[nH]c2c1 [Example 12] |  | 0.046
c1ccc(N2CCN(c3cc(-c4n[nH]c5ccccc45)ccn3)CC2)nc1 [Example 13] |  | 0.022
N#CC1(c2ccccc2)CCN(c2cc(-c3n[nH]c4ccccc34)ccn2)CC1 [Example 14] |  | 0.067
c1ccc2c(-c3ccnc(N4CCC5(CC4)OCCO5)c3)n[nH]c2c1 [Example 15, 8-[4-(1H-indazol-3-yl)pyridin-2-yl]-1,4-dioxa-8-azaspiro[4.5]decane] |  | 0.036

Structure (SMILES) | IC50 [1] [µM] | IC50 [2] [µM]
c1ccc2c(-c3ccnc(N4CCC(c5ccncc5)CC4)c3)n[nH]c2c1 [Example 16] |  | 0.186
N#CC1(c2ccccn2)CCN(c2cc(-c3n[nH]c4ccccc34)ccn2)CC1 [Example 17] |  | 0.016
CS(=O)(=O)N1CCN(c2cc(-c3n[nH]c4ccccc34)ccn2)CC1 [Example 18] |  | 0.017
c1ccc2c(-c3ccnc(N4CCN(Cc5ccncc5)CC4)c3)n[nH]c2c1 [Example 19] |  | 0.018
C1=CC(c2noc(C3CCN(c4cc(-c5n[nH]c6ccccc56)ccn4)CC3)n2)=CCC1 [Example 20] |  | 0.027
FC1CCCN(c2cc(-c3n[nH]c4ccccc34)ccn2)C1 (stereo not shown) [Example 21] |  | 0.022
c1ccc(C2CCN(c3cc(-c4n[nH]c5ccccc45)ccn3)CC2)nc1 [Example 22] |  | 0.02
OC1(c2ccccn2)CCN(c2cc(-c3n[nH]c4ccccc34)ccn2)CC1 [Example 23] |  | 0.02
c1cncc(N2CCN(c3cc(-c4n[nH]c5ccccc45)ccn3)CC2)c1 [Example 24] |  | 0.018
OC1(c2ccncc2)CCN(c2cc(-c3n[nH]c4ccccc34)ccn2)CC1 [Example 25] |  | 0.021
OC1(c2cccnc2)CCN(c2cc(-c3n[nH]c4ccccc34)ccn2)CC1 [Example 26] |  | 0.019
c1ccc2c(-c3ccnc(N4CCC(N5CCOCC5)CC4)c3)n[nH]c2c1 [Example 27] |  | 0.032
FC1(F)CCN(c2cc(-c3n[nH]c4ccccc34)ccn2)CC1 [Example 28] |  | 0.057
c1ccc2c(-c3ccnc(N4CCC(N5CCCC5)CC4)c3)n[nH]c2c1 [Example 29] |  | 0.045
CN(C)c1cc(-c2n[nH]c3ccccc23)ccn1 [Example 30] |  | 0.033
CC1CN(c2cc(-c3n[nH]c4ccccc34)ccn2)CC(C)O1 (stereo not shown) [Example 31] |  | 0.012
CN1CCCC(CN(C)c2cc(-c3n[nH]c4ccccc34)ccn2)C1 (stereo not shown) [Example 32] |  | 0.075
c1ccc2c(-c3ccnc(NC4COC4)c3)n[nH]c2c1 [Example 33] |  | 3.51
CN1CCC2(CCN(c3cc(-c4n[nH]c5ccccc45)ccn3)C2)C1 (stereo not shown) [Example 34] |  | 0.022
CN(C)[C@@H]1CCN(c2cc(-c3n[nH]c4ccccc34)ccn2)C1 [Example 35] |  | 0.028
OCC1CN(c2cc(-c3n[nH]c4ccccc34)ccn2)CCCO1 (stereo not shown) [Example 37] |  | 0.064
F[C@H]1COC[C@@H]1Nc1cc(-c2n[nH]c3ccccc23)ccn1 [Example 38] |  | 0.079

Structure (SMILES) | IC50 [1] [µM] | IC50 [2] [µM]
c1ccc2c(-c3ccnc(N4CCC(CN5CCOCC5)CC4)c3)n[nH]c2c1 [Example 40] |  | 0.028
O=C(O)[C@H]1CCCN(c2cc(-c3n[nH]c4ccccc34)ccn2)C1 [Example 41] |  | 0.024
c1ccc2c(-c3ccnc(NCCCn4ccnc4)c3)n[nH]c2c1 [Example 42] |  | 0.031
CN(C)CC1CN(c2cc(-c3n[nH]c4ccccc34)ccn2)CCO1 (stereo not shown) [Example 43] |  | 0.019
O=C1CCC(CNc2cc(-c3n[nH]c4ccccc34)ccn2)N1 (stereo not shown) [Example 44] |  | 0.026
CN(C)CCC(Nc1cc(-c2n[nH]c3ccccc23)ccn1)c1ccccn1 (stereo not shown) [Example 45] |  | 0.072
CN1CCN(c2cc(-c3n[nH]c4ccccc34)ccn2)CC1=O [Example 46] |  | 0.021
CN1CCC(O)(CNc2cc(-c3n[nH]c4ccccc34)ccn2)CC1 [Example 47] |  | 0.063
O=C1CN(c2cc(-c3n[nH]c4ccccc34)ccn2)CCCN1 [Example 48] |  | 0.054
O=C1CN(c2cc(-c3n[nH]c4ccccc34)ccn2)CCN1 [Example 49] |  | 0.023
CN1CCC(CN(C)c2cc(-c3n[nH]c4ccccc34)ccn2)CC1 [Example 50] |  | 0.04
C[C@@H]1C[C@@H](O)CN1c1cc(-c2n[nH]c3ccccc23)ccn1 [Example 51] |  | 0.033
O=C(O)[C@@H]1CCCN(c2cc(-c3n[nH]c4ccccc34)ccn2)C1 [Example 52] |  | 0.031
c1ccc2c(-c3ccnc(N4CCN(CCCN5CCOCC5)CC4)c3)n[nH]c2c1 [Example 53] |  | 0.018
CN1CCC(CNc2cc(-c3n[nH]c4ccccc34)ccn2)C1 (stereo not shown) [Example 54] |  | 0.047
CN1CC=C2CN(c3cc(-c4n[nH]c5ccccc45)ccn3)CC21 (stereo not shown) [Example 55] |  | 0.014
CN(C)CC1(O)CCN(c2cc(-c3n[nH]c4ccccc34)ccn2)CC1 [Example 56] |  | 0.025
O=C(CN1CCN(c2cc(-c3n[nH]c4ccccc34)ccn2)CC1)N1CCOCC1 [Example 57] |  | 0.0061
OCCOCCNc1cc(-c2n[nH]c3ccccc23)ccn1 [Example 58] |  | 0.051
c1ccc2c(-c3ccnc(N4Cc5cncnc5C4)c3)n[nH]c2c1 [Example 59] |  | 0.037
CC1=NC2(CCCN(c3cc(-c4n[nH]c5ccccc45)ccn3)C2)C(=O)N1 (stereo not shown) [Example 60] |  | 0.202
O=C1CCCC2(CCN(c3cc(-c4n[nH]c5ccccc45)ccn3)CC2)N1 [Example 61] |  | 0.014

Structure (SMILES) | IC50 [1] [µM] | IC50 [2] [µM]
FC1CCN(CCCNc2cc(-c3n[nH]c4ccccc34)ccn2)C1 (stereo not shown) [Example 62] |  | 0.046
c1ccc2c(-c3ccnc(N4CCC5OCCC54)c3)n[nH]c2c1 (stereo not shown) [Example 63] |  | 0.04
c1ccc2c(-c3ccnc(NCCn4ccnc4)c3)n[nH]c2c1 [Example 64] |  | 0.035
CN(C)C(=O)CN1CCN(c2cc(-c3n[nH]c4ccccc34)ccn2)CC1 [Example 65] |  | 0.0068
OCCC1CN(c2cc(-c3n[nH]c4ccccc34)ccn2)CCO1 (stereo not shown) [Example 66] |  | 0.015
COC1CN(c2cc(-c3n[nH]c4ccccc34)ccn2)C1 [Example 67] |  | 0.031
CN1CCC(Nc2cc(-c3n[nH]c4ccccc34)ccn2)C1=O (stereo not shown) [Example 68] |  | 0.108
CN(CC1CCC(=O)N1)c1cc(-c2n[nH]c3ccccc23)ccn1 (stereo not shown) [Example 69] |  | 0.075
NC(=O)C1CCCN(c2cc(-c3n[nH]c4ccccc34)ccn2)C1 (stereo not shown) [Example 71] |  | 0.016
O=C1CCN(c2cc(-c3n[nH]c4ccccc34)ccn2)CCN1 [Example 72] |  | 0.057
c1ccc2c(-c3ccnc(NCCN4CCOCC4)c3)n[nH]c2c1 [Example 73] |  | 0.035
c1ccc2c(-c3ccnc(NC4CCCOC4)c3)n[nH]c2c1 (stereo not shown) [Example 74] |  | 0.057
c1ccc2c(-c3ccnc(N4CCNCC4)c3)n[nH]c2c1 [Example 75] | 0.08 | 
O=C1CCN(c2cc(-c3n[nH]c4ccccc34)ccn2)CC1 [Example 76] | 0.045 | 
Brc1ccc2[nH]nc(-c3ccnc(N4CCOCC4)c3)c2c1 [Example 77] | 0.011 | 
Oc1ccc2[nH]nc(-c3ccnc(N4CCOCC4)c3)c2c1 [Example 78] | 0.0053 | 
COc1ccc2[nH]nc(-c3ccnc(N4CCOCC4)c3)c2c1 [Example 79] | 0.0074 | 
CCN(CC)CCOc1ccc2[nH]nc(-c3ccnc(N4CCOCC4)c3)c2c1 [Example 80] |  | 0.037
FC(F)=CCCOc1ccc2[nH]nc(-c3ccnc(N4CCOCC4)c3)c2c1 [Example 81] |  | 0.0048
c1cc(-c2n[nH]c3ccc(OCCN4CCOCC4)cc23)cc(N2CCOCC2)n1 [Example 82] |  | 0.0047
c1cc(-c2n[nH]c3ccc(OCC4CCCO4)cc23)cc(N2CCOCC2)n1 (stereo not shown) [Example 83] |  | 0.0054
CC(C)COc1ccc2[nH]nc(-c3ccnc(N4CCOCC4)c3)c2c1 [Example 84] |  | 0.0059
